Values of other authors in patent publication US20130310903A1, “Anti-Depression Light-Wave Device and Usage Thereof” (priority 2012, published 2013).
Like-named read-outs stand apart in the source and are kept apart here.

Settings: 12-week administration; for CGI outcome Worse: share of patients

Fc1ccc([C@@H]2CCNC[C@H]2COc2ccc3c(c2)OCO3)cc1 [Paxil, Paroxetine]
CGI outcome Minimally (20 mg): 33% | CGI outcome Much Improved (20 mg): 18% | CGI outcome No Change (20 mg): 35% | CGI outcome Very Much (20 mg): 7% | CGI outcome Worse (20 mg): 7% | CGI outcome Minimally (40 mg): 29% | CGI outcome Much Improved (40 mg): 22% | CGI outcome No Change (40 mg): 22% | CGI outcome Very Much (40 mg): 20% | CGI outcome Worse (40 mg): 7% | CGI outcome Minimally (60 mg): 34% | CGI outcome Much Improved (60 mg): 24% | CGI outcome No Change (60 mg): 19% | CGI outcome Very Much (60 mg): 20% | CGI outcome Worse (60 mg): 3%
